{
  "source": "paper PMC4666608",
  "about": "“Metabolic Profiling of Chicken Embryos Exposed to Perfluorooctanoic Acid (PFOA) and Agonists to Peroxisome Proliferator-Activated Receptors” (PLoS ONE, 2015)",
  "system": "chicken embryos",
  "experiment": "Metabolic profiling of blood plasma (GC-MS, LC-MS, OPLS-DA)",
  "assay_type": "in vivo, Gallus gallus domesticus",
  "procedure": "Controls were injected with 20 μL vehicle only (DMSO).\nPlasma was collected and stored at -70°C.\nMetabolites in allantoic fluid and blood plasma were analyzed using gas chromatography-mass spectrometry (GC-MS) and liquid chromatography-mass spectrometry (LC-MS) as described in S1 Methods. Prior to GC-MS and LC-MS analysis, allantoic fluid (100 μL) and blood plasma (50 μL) were extracted. To each sample, 900 μL (allantoic fluid) or 450 μL (blood plasma) of extraction buffer (90/10 v/v methanol:water) including all internal standards were added. Standards for GC-MS were proline, succinic acid, glutamic acid, salicylic acid, alpha-ketoglutarate, putrescine, myristic acid, hexadecanoic acid, cholesterol, and sucrose. Standards for LC-MS were Val-Tyr-Val, Leu-enkephalin, sulfadimethoxine and reserpine. Samples were homogenized by shaking in a bead mill at a frequency of 30 Hz for 3 minutes and proteins were precipitated at +4°C on ice. The samples were centrifuged at +4°C, 14000 rpm, for 10 min. Then, 200 μL supernatant was transferred to a GC microvial and 200 μL was transferred to an LC microvial, and solvents were evaporated. Samples from the four replicate experiments were analyzed using in chronological order and within each replicate experiment the run order of the individual samples was randomized.\nMultivariate statistical analyses of metabolite profiles were performed using the software package SIMCA-P version 13.0 (Umetrics, Umeå, Sweden). Data was centered and scaled to variance 1 (UV scaling) prior to modelling. To reduce unintended systematic variation caused by sample processing and instrument drift, GC-MS and LC-MS metabolite amounts (expressed as the area under the chromatographic peak) were normalized by Orthogonal Partial Least Squares analysis (O2PLS) prior to multivariate data analysis. O2PLS finds common (predictive) and unique (orthogonal) variation in two data matrices. If applied to find the common variation between the data matrix containing the measured metabolite concentrations and a matrix containing only the internal standards, the only common (predictive) variation expected is due to the unintended systematic variation. By deleting the contribution of the predictive latent variables, that variation can be removed from the data. Models obtained after this normalization contain in general less latent variables, and this simplification helps when deciding on the number of latent variables to be used. Following normalization, GC-MS and LC-MS data were analyzed together. Initially, a global Principal Component Analysis (PCA) was performed to get an overview of groups and trends and to identify outliers. Projections to latent structures by means of Orthogonal Partial Least Squares Discriminant Analysis (OPLS-DA) was used to model the relationship between the X-matrix (metabolite concentrations) and the Y matrix (class, i.e. exposure group or sex), and to find x-variables that were related to class belonging. OPLS-DA is a supervised prediction and regression method that rotates the projection plane to find the maximum covariance between the data and the class assignment. All groups were first analyzed together in a 5-class OPLS-DA and then each exposure group was analyzed against the control group in a 2-class OPLS-DA. Sex differences were analyzed both using the whole data set and in each group separately using 2-class OPLS-DA, with females and males as the two classes. Only variables with 80% or more nonzero values were included in the statistical models. […] The validity of each model was also checked using CV-ANOVA (ANOVA of the cross-validated residuals). A significance level of p < 0.05 was used. For each model, R ^2 X, R ^2 Y and Q ^2 values were calculated, where R ^2 X is a measure of the fraction of x variation modeled in the extracted latent variables, R ^2 Y is a measure of the fraction of y variation modeled and Q ^2 is an estimate of the predictive ability of the model and is calculated by cross-validation. […]",
  "note": "Marks after values point to notes of the source that are not given here.",
  "data": [
    {"smiles": "CC(C)(Sc1ccc(CCN(CCCCC2CCCCC2)C(=O)NC2CCCCC2)cc1)C(=O)O", "note": "[GW7647, reference compound]", "values": [
      {"measurement": "Mean concentration relative to control, feature Win006_C03", "setting": "GC", "value": "1.3***"},
      {"measurement": "Mean concentration relative to control, feature Win011_C02 (Isoleucine)", "setting": "GC", "value": "1.2**"},
      {"measurement": "Mean concentration relative to control, feature Win027_C13", "setting": "GC", "value": 0.9},
      {"measurement": "Mean concentration relative to control, feature Win031_C03 (Citric acid)", "setting": "GC", "value": "0.8**"},
      {"measurement": "Mean concentration relative to control, feature Win034_C08 (Tyrosine)", "setting": "GC", "value": "1.2***"},
      {"measurement": "Mean concentration relative to control, feature Win034_C09 (Tyrosine)", "setting": "GC", "value": "1.3***"},
      {"measurement": "Mean concentration relative to control, feature Win039_C07", "setting": "GC", "value": "1.8***"},
      {"measurement": "Mean concentration relative to control, feature Win043_C02 (Cystathionine)", "setting": "GC", "value": "1.6***"},
      {"measurement": "Mean concentration relative to control, feature Win061_C01", "setting": "GC", "value": "1.4*"},
      {"measurement": "Mean concentration relative to control, feature Win066_C03", "setting": "GC", "value": "1.3**"},
      {"measurement": "Mean concentration relative to control, feature Win088_C02", "setting": "GC", "value": "1.2**"},
      {"measurement": "Mean concentration relative to control, feature 118.0284@2.480333 (C4H6O4)", "setting": "LC", "value": 0.9},
      {"measurement": "Mean concentration relative to control, feature 122.0486@0.675613", "setting": "LC", "value": "0.7**"},
      {"measurement": "Mean concentration relative to control, feature 126.0428@1.2278157 (Thymine)", "setting": "LC", "value": "1.2***"},
      {"measurement": "Mean concentration relative to control, feature 146.0362@0.7772238", "setting": "LC", "value": "1.3**"},
      {"measurement": "Mean concentration relative to control, feature 159.0686@1.1608156", "setting": "LC", "value": "1.6**"},
      {"measurement": "Mean concentration relative to control, feature 164.0449@0.7694838", "setting": "LC", "value": "1.2**"},
      {"measurement": "Mean concentration relative to control, feature 202.1024@5.0303197 (C8H14N2O4)", "setting": "LC", "value": "1.4**"},
      {"measurement": "Mean concentration relative to control, feature 203.1162@0.5130696", "setting": "LC", "value": "0.8***"},
      {"measurement": "Mean concentration relative to control, feature 213.2458@7.4887733", "setting": "LC", "value": 1},
      {"measurement": "Mean concentration relative to control, feature 215.047@1.6260729 (C5H14NO6P)", "setting": "LC", "value": "0.8***"},
      {"measurement": "Mean concentration relative to control, feature 226.0721@1.9460537", "setting": "LC", "value": "1.1**"},
      {"measurement": "Mean concentration relative to control, feature 231.0174@1.6241412", "setting": "LC", "value": "0.7**"},
      {"measurement": "Mean concentration relative to control, feature 233.1265@2.535991", "setting": "LC", "value": "1.4**"},
      {"measurement": "Mean concentration relative to control, feature 250.1317@2.1334834", "setting": "LC", "value": "1.7**"},
      {"measurement": "Mean concentration relative to control, feature 260.0508@0.69984084", "setting": "LC", "value": 0.8},
      {"measurement": "Mean concentration relative to control, feature 276.0173@1.6283482", "setting": "LC", "value": "0.7**"},
      {"measurement": "Mean concentration relative to control, feature 278.0939@1.3354088", "setting": "LC", "value": "0.8***"},
      {"measurement": "Mean concentration relative to control, feature 293.0903@1.5739433", "setting": "LC", "value": "1.2***"},
      {"measurement": "Mean concentration relative to control, feature 307.2147@7.5065937 (C18H29NO3)", "setting": "LC", "value": 0.9},
      {"measurement": "Mean concentration relative to control, feature 310.178@7.5343466", "setting": "LC", "value": 1},
      {"measurement": "Mean concentration relative to control, feature 339.3861@9.528681", "setting": "LC", "value": 1.1},
      {"measurement": "Mean concentration relative to control, feature 342.2883@7.526812", "setting": "LC", "value": 1.1},
      {"measurement": "Mean concentration relative to control, feature 348.0675@1.5761927", "setting": "LC", "value": "1.1**"},
      {"measurement": "Mean concentration relative to control, feature 355.9454@0.68034226", "setting": "LC", "value": "0.9**"},
      {"measurement": "Mean concentration relative to control, feature 362.1467@0.8461036", "setting": "LC", "value": "1.2***"},
      {"measurement": "Mean concentration relative to control, feature 366.1431@1.4228548", "setting": "LC", "value": 1.1},
      {"measurement": "Mean concentration relative to control, feature 373.296@9.044806", "setting": "LC", "value": "0.8***"},
      {"measurement": "Mean concentration relative to control, feature 375.3108@8.995564", "setting": "LC", "value": "0.8**"},
      {"measurement": "Mean concentration relative to control, feature 389.2686@9.046645", "setting": "LC", "value": "0.9**"},
      {"measurement": "Mean concentration relative to control, feature 407.0999@1.585909", "setting": "LC", "value": 1},
      {"measurement": "Mean concentration relative to control, feature 412.135@2.4779084 (C17H24N4O6S)", "setting": "LC", "value": 0.9},
      {"measurement": "Mean concentration relative to control, feature 444.3607@10.33052", "setting": "LC", "value": 0.9},
      {"measurement": "Mean concentration relative to control, feature 471.9819@0.685074", "setting": "LC", "value": "0.8*"},
      {"measurement": "Mean concentration relative to control, feature 489.1508@8.562614", "setting": "LC", "value": "0.7**"},
      {"measurement": "Mean concentration relative to control, feature 509.1184@2.4798179", "setting": "LC", "value": 1},
      {"measurement": "Mean concentration relative to control, feature 525.2855@8.361063", "setting": "LC", "value": "1.4**"},
      {"measurement": "Mean concentration relative to control, feature 545.2492@8.463657", "setting": "LC", "value": "1.2*"},
      {"measurement": "Mean concentration relative to control, feature 558.4095@9.459733", "setting": "LC", "value": 1.3},
      {"measurement": "Mean concentration relative to control, feature 565.1902@0.7699907", "setting": "LC", "value": "1.2***"},
      {"measurement": "Mean concentration relative to control, feature 577.2747@9.25652", "setting": "LC", "value": "1.2**"},
      {"measurement": "Mean concentration relative to control, feature 581.1643@0.77029324", "setting": "LC", "value": "1.3***"},
      {"measurement": "Mean concentration relative to control, feature 634.2403@1.9467853", "setting": "LC", "value": "1.5*"},
      {"measurement": "Mean concentration relative to control, feature 644.1614@0.7647065", "setting": "LC", "value": "1.2**"},
      {"measurement": "Mean concentration relative to control, feature 659.5483@11.4915495", "setting": "LC", "value": "0.7***"},
      {"measurement": "Mean concentration relative to control, feature 698.2598@1.3599721", "setting": "LC", "value": 1.1},
      {"measurement": "Mean concentration relative to control, feature 700.5514@10.765638", "setting": "LC", "value": "1.4*"},
      {"measurement": "Mean concentration relative to control, feature 755.5465@10.73882", "setting": "LC", "value": 0.9},
      {"measurement": "Mean concentration relative to control, feature 827.5078@8.831237", "setting": "LC", "value": "1.5*"},
      {"measurement": "Mean concentration relative to control, feature 875.4661@10.5661745", "setting": "LC", "value": "1.3***"},
      {"measurement": "Mean concentration relative to control, feature 1262.4865@1.947075", "setting": "LC", "value": "1.1**"},
      {"measurement": "Mean concentration relative to control, feature 1316.4163@1.9465046", "setting": "LC", "value": "1.1**"},
      {"measurement": "Mean concentration relative to control, feature 1591.051@5.0189176", "setting": "LC", "value": "0.8**"},
      {"measurement": "Mean concentration relative to control, feature 1591.388@5.0202384", "setting": "LC", "value": "0.8***"},
      {"measurement": "Mean concentration relative to control, feature 1591.7203@5.018071", "setting": "LC", "value": "0.8**"}
    ]}
  ]
}
